#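 Cultured in 96-well plates, cells were exposed to test compound for 48 hours across five concentrations. Abbreviation: GI50, concentration required for 50% inhibition of growth. At the TGI there is no net growth.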
# Key:
# Test in all cases: NCI tumour cell line growth inhibition, 48 h
# [1] = test system: P388 leukemia
# [2] = test system: SN12K1 renal
# [3] = test system: LXFL 529 NSCLC
# [4] = test system: RXF-631 renal
SMILES,TGI [1] [µM],TGI [2] [µM],TGI [3] [µM],TGI [4] [µM],GI50 [3] [µM]
CC1=C2C3OC(=O)C(C)C3CCC2(C)C=CC1=Nc1ccccc1 (centres undefined),> 100,> 100,–,–,–
O=c1ccnc2ccc3n[nH][nH]c3c12,–,–,> 100,> 100,–
CCCCCCCCOC(=O)c1cc([N+](=O)[O-])c(Sc2ncnc3nc[nH]c23)c([N+](=O)[O-])c1,0.447,2.64,–,–,–
C=CCCCCCCCCC(=O)O,379,209,–,–,–
CN(C(=O)c1ccc(OCCCC(=O)O)c(Cl)c1Cl)C1CCCC1,> 100,> 100,–,–,–
O=c1c([OH2+])c(-c2ccc(O)cc2[O-])oc2cc(O)cc([O-])c12.O=c1c([OH2+])c(-c2ccc(O)cc2[O-])oc2cc(O)cc([O-])c12.[Ti+4],–,–,> 100,–,> 100
CCOC(=O)C(=O)NC12CC3CC(CC(C3)C1)C2,–,–,> 100,> 100,–
